The record followed here is US8552035B2, “Phenanthrenone compounds, compositions and methods” (Pfizer Inc., priority 2008, dated 2013).

What all share (format): cell-based
For assay [1], the system named is IL-1β. Briefly: LPS-induced human whole blood, IL-1β release. The conditions noted are these: Homo sapiens, mean of donors; for inhibition at 0.00137174 µM: 1.371742 nM; for inhibition at 0.00411523 µM: 4.115226 nM; for inhibition at 0.0123457 µM: 12.34568 nM; for inhibition at 0.037037 µM: 37.03704 nM; for inhibition at 0.111111 µM: 111.1111 nM; for inhibition at 0.333333 µM: 333.3333 nM; for inhibition at 1 µM: 1000 nM. As for the experimental part:
(§1) Venous blood from human donors was collected as 10 ml aliquots in tubes containing sodium heparin (BD Vacutainer from Becton Dickinson and Company, Franklin Lakes, N.Y.). Blood was added to sterile polystyrene round bottom 96-well tissue culture plates (Corning Costar) at 180 Blood was placed in a humidified 37 C incubator with 5% CO2 while compounds were prepared (nearly 60 minutes).
(§2) Compounds were prepared from 10 mM stock solutions in dimethylsulfoxide (DMSO, Sigma-Aldrich). Stock compound was diluted in DMSO to give appropriate starting concentration then diluted serially 1/3 in DMSO (i.e. 15 μl compound+30 μl DMSO), followed by diluting each serial dilution 1/167 into vehicle solution (2% DMSO in phosphate buffered saline (Dulbecco's Phosphate Buffered Saline without calcium chloride without magnesium chloride, Invitrogen Corporation, Carlsbad Calif.)). Compound or vehicle was added to blood in 10 μl aliquots as triplicates, omitting the outside wells to minimize possible edge effects. The final highest concentration of each compound in the assay ranged from 3 to 0.3 μM. Final DMSO concentration in the assay was 0.1%. The plate containing the samples was gently vortexed to mix and replaced in the incubator. LPS stock (E. coli serotype 0111:B4, Sigma-Aldrich), stored in aliquots of 100 μg/ml in RPMI at −20° C., was diluted […] in RPMI to make a working stock solution. After 60 minutes of incubation, 10 μl of the prepared LPS working stock was added to the blood to a final concentration of 100 ng/ml. Wells to be used as negative control received RPMI media with no LPS. The plate was again gently vortexed and the plates incubated overnight for 22 hours. Following incubation, the blood was centrifuged at 1500×g for 5 minutes and the plasma removed to either freeze at −20° C. or assay for cytokine release.
(§3) IL-1β, IFNγ and TNFα protein levels were measured using Meso Scale assay kits (Meso Scale Discovery, Gaithersburg, Md., U.S.A.). Reagents were allowed to come to room temperature. Meso Scale plates were blocked with 150 μl of Meso Scale Block B diluent, gently shaking at room temperature for 60 minutes. Plates were washed 3× with wash buffer (PBS, Invitrogen Corporation, with 0.05% Tween-20, Sigma-Aldrich). Calibrators for standard curves were prepared in human plasma/serum assay diluent as a 1/5 serial dilution to achieve final concentrations ranging from 50000 pg/ml to 3.2 pg/ml. Samples were added at 10 to 20 μl/well and calibrators were added at 20 μl/well then incubated at room temperature with gentle shaking for 2 hours. Plates were again washed 3× with wash buffer. Detection antibody was diluted in human plasma/serum antibody diluent to 1 μg/ml and added to the plate at 20 μl/well. Plates were incubated as before for 2 hours and washed again. Read Buffer T (4×) was diluted 1:1 with mqH20 to 2× concentration and 150 μl added to each well. Plates were read on the SECTOR Imager 6000 (Meso Scale Discovery) to generate raw signal values.
(§4) Individual sample signal values were compared to positive and negative controls (vehicle treated blood with LPS and vehicle treated blood without LPS, respectively) to generate % inhibition. Triplicate values were averaged for each donor. The values for three or four donors were averaged and graphed using 4-parameter fit curves in the LabStats plug-in for the Microsoft Excel application.

The subject of assay [2] is TNFα. Briefly: LPS-induced human whole blood, TNFα release. Conditions: Homo sapiens, mean of donors; for inhibition at 0.00137174 µM: 1.371742 nM; for inhibition at 0.00411523 µM: 4.115226 nM; for inhibition at 0.0123457 µM: 12.34568 nM; for inhibition at 0.037037 µM: 37.03704 nM; for inhibition at 0.111111 µM: 111.1111 nM; for inhibition at 0.333333 µM: 333.3333 nM; for inhibition at 1 µM: 1000 nM. How it is done:
as §1, §2, §3, §4

The test system of assay [3] is IFNγ. Briefly: LPS-induced human whole blood, IFNγ release. Conditions: mean of donors; for IFNγ (% inhibition) / inhibition at 3 µM: 3000 nM; for IFNγ (% inhibition): 3 µM; for inhibition at 0.00137174 µM / inhibition at 0.00411523 µM / inhibition at 0.0123457 µM / inhibition at 0.037037 µM / inhibition at 0.111111 µM / inhibition at 0.333333 µM / inhibition at 1 µM / inhibition at 3 µM: Homo sapiens; for inhibition at 0.00137174 µM: 1.371742 nM; for inhibition at 0.00411523 µM: 4.115226 nM; for inhibition at 0.0123457 µM: 12.34568 nM; for inhibition at 0.037037 µM: 37.03704 nM; for inhibition at 0.111111 µM: 111.1111 nM; for inhibition at 0.333333 µM: 333.3333 nM; for inhibition at 1 µM: 1000 nM. How it is done: as §1, §2, §3, §4

Take `Cc1ncccc1COc1ccc2c(c1)CC[C@@H]1C[C@@](O)(c3ccccc3)[C@@H](O)C[C@@]21Cc1ccccc1` [Comparator G, (2R,3S,4aR,10aR)-4a-Benzyl-7(2-methyulpyridin-3-ylmethoxy)-2-phenyl-1,2,3,4,4a,9,10,10a-octahydrophenanthrene-2,3 diol]: in assay [1], the inhibition (in general, the change of the read-out against control, counted positive when it falls) at 0.00137174 µM is -0.115%; the inhibition at 0.00411523 µM is -2.64%; the inhibition at 0.0123457 µM is -7.52%; the inhibition at 0.037037 µM is -7.35%. In addition, in assay [1], the inhibition at 0.111111 µM is -5.37%, the inhibition at 0.333333 µM is -6.75% and the inhibition at 1 µM was -1.19%. For the same molecule, the inhibition at 3 µM in assay [1] (3000 nM) was below 20%. In assay [2], the inhibition at 0.00137174 µM is 3.22%, the inhibition at 0.00411523 µM was -2.9%, the inhibition at 0.0123457 µM is -14% and the inhibition at 0.037037 µM is -13.9%. Also, in assay [2], the inhibition at 0.111111 µM was -8.76%, the inhibition at 0.333333 µM is -13.8% and the inhibition at 1 µM is -8.47%. For the same molecule, the inhibition at 3 µM in assay [2] (3000 nM) is below 20%. In assay [3], the “IFNγ (% inhibition)” value stood at 41.3796%, the inhibition at 0.00137174 µM amounted to 16.7%, the inhibition at 0.00411523 µM amounted to 12.8% and the inhibition at 0.0123457 µM was -9.15%. For the same molecule, in assay [3], the inhibition at 0.037037 µM is -2.58%, the inhibition at 0.111111 µM was 2.66%, the inhibition at 0.333333 µM turned out to be 2.02% and the inhibition at 1 µM is 13.2%. Further, the inhibition at 3 µM in assay [3] was 41%.
With `Oc1ccc2c(c1)CC[C@@H]1C[C@@](O)(c3ccccc3)[C@@H](O)C[C@@]21Cc1ccccc1` [Comparator F, (2R,3S,4aR,10aR)-4a-Benzyl-2-phenyl-1,2,3,4,4a,9,10,10a-octahydrophenanthrene-2,3,7-triol], in assay [1], the inhibition at 0.00137174 µM is -4.16%, the inhibition at 0.00411523 µM was -6.16%, the inhibition at 0.0123457 µM was -5.49% and the inhibition at 0.037037 µM is -6.15%. In assay [1], the inhibition at 0.111111 µM is -4.59%, the inhibition at 0.333333 µM was -2.45% and the inhibition at 1 µM was 0.22%. For the same molecule, in assay [2], the inhibition at 0.00137174 µM was -2.51%, the inhibition at 0.00411523 µM is -8.12%, the inhibition at 0.0123457 µM is -6.79% and the inhibition at 0.037037 µM was -4.23%. Besides, in assay [2], the inhibition at 0.111111 µM was -6.35%, the inhibition at 0.333333 µM is -3.43% and the inhibition at 1 µM was 4.14%. In assay [3], the “IFNγ (% inhibition)” value amounted to 21.96%, the inhibition at 0.00137174 µM is -12.4%, the inhibition at 0.00411523 µM was -15.3% and the inhibition at 0.0123457 µM is -8.35%. Further, in assay [3], the inhibition at 0.037037 µM is -13.4%, the inhibition at 0.111111 µM is -4.6%, the inhibition at 0.333333 µM is -3.3% and the inhibition at 1 µM is 14.6%. Moreover, the inhibition at 3 µM in assay [3] is 22%.
